# ChEMBL document CHEMBL1129162, “Analogs of the orally active growth hormone secretagogue L-162,752” (Bioorg Med Chem Lett, 1996)
# Tests used:
# Rattus norvegicus [1] = organism: Rattus norvegicus; test: In vitro for growth hormone release by using rat pituitary cell assay.; type: functional; conditions: Pituitary gland cell
# [2] = pKa was determined; type: physicochemical
# Rattus norvegicus [3] = organism: Rattus norvegicus; test: Compound was tested in vitro for growth hormone release by using rat pituitary cell assay.; type: functional, Pituitary gland cell
pKa [2],SMILES,EC50 (Rattus norvegicus [1]) [µM],Stimulation (Rattus norvegicus [3]) [%]
,O=C(N[C@H](Cc1c[nH]c2ccccc12)C(=O)N1CCC2(CCc3ccccc32)CC1)C1CCCCN1 (stereo partly specified),1.9,
,O=C(N[C@H](Cc1c[nH]c2ccccc12)C(=O)N1CCC2(CCc3ccccc32)CC1)C1CCNCC1,0.1,
,O=C(N[C@H](Cc1c[nH]c2ccccc12)C(=O)N1CCC2(CCc3ccccc32)CC1)C1CCCNC1 (stereo partly specified),0.09,
,C[C@@H](N)C(=O)N[C@H](Cc1c[nH]c2ccccc12)C(=O)N1CCC2(CCc3ccccc32)CC1,1,
,C[C@](N)(CO)C(=O)N[C@H](Cc1c[nH]c2ccccc12)C(=O)N1CCC2(CCc3ccccc32)CC1,0.6,
,CC(C)(N)CC(=O)N[C@@H]1CCc2ccccc2N(Cc2ccc(-c3ccccc3-c3nn[nH]n3)cc2)C1=O,0.06,
,NCC(=O)N[C@H](Cc1c[nH]c2ccccc12)C(=O)N1CCC2(CCc3ccccc32)CC1,2,
,C[C@H](O)CNC(C)(C)C(=O)N[C@H](Cc1c[nH]c2ccccc12)C(=O)N1CCC2(CCc3ccccc32)CC1,0.7,
,C[C@H](O)CNC(C)(C)CC(=O)N[C@H](Cc1c[nH]c2ccccc12)C(=O)N1CCC2(CCc3ccccc32)CC1,0.0026,
,CC(C)(CC(=O)N[C@H](Cc1c[nH]c2ccccc12)C(=O)N1CCC2(CCc3ccccc32)CC1)NC[C@H](O)CO,0.016,
,NC1(C(=O)N[C@H](Cc2c[nH]c3ccccc23)C(=O)N2CCC3(CCc4ccccc43)CC2)CCCC1,2.6,
,C[C@H](N)C(=O)N[C@H](Cc1c[nH]c2ccccc12)C(=O)N1CCC2(CCc3ccccc32)CC1,0.84,
,C[C@@](N)(CO)C(=O)N[C@H](Cc1c[nH]c2ccccc12)C(=O)N1CCC2(CCc3ccccc32)CC1,0.048,
5.9,NC1(C(=O)N[C@H](Cc2c[nH]c3ccccc23)C(=O)N2CCC3(CCc4ccccc43)CC2)CC1,2.1,
,CC(C)(N)C(=O)N[C@@H](Cc1c[nH]c2ccccc12)C(=O)N1CCC2(CCc3ccccc32)CC1,10,
,CC(C)(N)CC(=O)N[C@H](Cc1c[nH]c2ccccc12)C(=O)N1CCC2(CCc3ccccc32)CC1,0.076,
,NC1(C(=O)N[C@H](Cc2c[nH]c3ccccc23)C(=O)N2CCC3(CCc4ccccc43)CC2)CCCCC1,,92
7.9,CC(C)(N)C(=O)N[C@H](Cc1c[nH]c2ccccc12)C(=O)N1CCC2(CCc3ccccc32)CC1 [L-162752],0.014,
,O=C(NC(Cc1c[nH]c2ccccc12)C(=O)N1CCC2(CCc3ccccc32)CC1)NC1CN2CCC1CC2 (stereo unspecified) [SPIROPIPERIDINE],0.05,
